Source: patent US9738614B2, “Malignant and non-malignant disease treatment with Ras antagonists” (PISCES THERAPEUTICS, LLC, priority 2011, dated 2017)

How the values were obtained:
[1] = test system: U87MG cells; test: Cell proliferation assay for U87MG cells; assay type: cell-based
Method: (§1) The adult glioblastoma cell line U87MG was obtained from a commercial source (ATCC). The pancreatic cancer cell line PANC-1 was obtained from a local laboratory (Indiana University). Both lines were grown in Iscove's Modified Dulbecco's Medium with 10% fetal bovine serum (FBS) at 37° C. and 5% CO2.
(§2) Compounds (1), (2), (3), (4), and (5), which are shown and described above, were each dissolved in ethanol at 10 mg/mL. A measured portion of the solution was pipetted into a microcentrifuge tube. Then, the ethanol was evaporated from each tube using a SpeedVac®, leaving just the compound in the tube. The appropriate amount of chloroform was added to the tube to produce a 0.1 M concentration. The solutions were placed on ice and in the dark so they could be pipetted into 10- and 20-μL aliquots in 1.5 mL microcentrifuge tubes. The solutions were frozen at […] with lids closed tightly and the tubes covered with foil.
(§3) Prior to treating the cells, a tube of the test compound was removed from the freezer and placed under a biosafety hood to evaporate the chloroform in the tubes. Then, dimethyl sulfoxide (DMSO) was added to the tubes to make the correct concentration to use in the experiment (0.1 M stock). The tubes were vortexed, and warm media with 10% FBS was slowly added to make the correct working concentrations to be used in the experiment. The compounds were directly added to each well for treatment.
U87MG cells were seeded in a 24-well plate, 5000 cells per well, and incubated overnight at 37° C. in serum-free media. The next day they were treated in triplicate with 50 and 100 μM of each test compound (1), (2), (3), (4), and (5) and the reference compound FTS. After five days, the cells were trypsinized (0.5%), stained with trypan blue, and counted to determine the cell number per well. The half-maximal inhibitory concentration (IC50) values were calculated using Multiplex Reader-Fit software made by MiraiBio Group, Hitachi Solutions America, Ltd. In a typical experiment, the control wells averaged 138,000 cells. The results are presented graphically in FIG. 1. The test compounds at 50 μM allowed the following U87MG cell proliferation compared to control: compound (1)—37%, compound (2)—18%, compound (3)—10%, compound (4)—40%, and compound (5)—0%. The reference compound FTS at 50 μM allowed 7% cell proliferation compared to control.
To further evaluate compounds (3) and (5), which inhibited the most cell growth in FIG. 1, more U87MG cells were seeded in 24-well plates, 5000 cells per well, and incubated overnight at 37° C. in serum-free media. The cells were treated the next morning in media with 5% serum in triplicate with standard concentrations of 6.25, 12.5, 25, and 50 μM of each test compound (3) and (5) and the reference compound FTS. After five days of treatment, the cells were trypsinized (0.5%) and then stained with trypan blue. Cells were counted to determine the number of cells per well. Again, the IC50 values were calculated using Multiplex Reader-Fit software made by MiraiBio Group, Hitachi Solutions America, Ltd. In a typical experiment, the control wells averaged 56,000 cells. The results are presented graphically in FIG. 2. The test compounds at 25 μM allowed the following U87MG cell proliferation compared to control: compound (3)—69% and compound (5)—0%. The reference compound FTS at 25 μM allowed over 50% cell proliferation compared to control.
Since the doses of compound (5) used above killed all of the cells, the dose curve was set up again using even lower doses of compound (5). U87MG cells were seeded in 24-well plates, 5000 cells per well, and incubated overnight at 37° C. in serum-free media. The cells were treated in triplicate with 6.25, 12.5, 25, and 50 μM of the reference compound FTS and 0.3125, 0.625, 1.25, 2.5, and 5.0 μM of the test compound (5) in media with 5% serum for five days. Then, the cells were trypsinized (0.5%) and stained with trypan blue, and the cell number per each well was determined. […]

[2] = test system: PANC-1 cells; test: Cell proliferation assay for PANC-1 cells; assay type: cell-based; details: 12.5 μM, media with 5% serum, five days (FIG. 3)
Method: as §1, §2, §3
The cells were treated in triplicate with standard concentrations of 6.25, 12.5, 25, 50, and 100 μM of each test compound (3) and (5) and the reference compound FTS and, when needed, concentrations of 0.625, 1.25, 2.5 and 5.0 μM in media with 5% serum for five days. Then, the cells were stained with trypan blue, and the cell number per each well was determined. Again, the IC50 values were calculated using Multiplex Reader-Fit software made by MiraiBio Group, Hitachi Solutions America, Ltd. In a typical experiment, the control wells averaged 32,500 cells. The results are presented graphically in FIG. 3. […]

[3] = test system: hematopoietic progenitor cells (cord blood low density cells); test: Human hematopoietic progenitor cell toxicity (colony assay); assay type: cell-based; details: 12 days; 25 and 2.5 μM for compound (3), 2.5 and 0.25 μM for compound (5)
Method: Cord blood low density cells were plated at 1×10^5 cells per plate in 1 mL complete methylcellulose in the presence of each test compound (3) and (5) and incubated for 12 days in a CO2 incubator. Colony-forming unit-granulocyte (CFU-GM), burst-forming unit-erythroid (BFU-E), and mixed colonies were counted under an inverted microscope. […] The test compounds were not toxic to the hematopoietic progenitor cells.

[4] = test system: Ras-GTP; test: Ras-GTP Western blot in PDGF-stimulated NF-1-/- Schwann cells; assay type: cell-based, mouse; details: 2.5-5 μM, 3 minutes after PDGF stimulation (FIG. 5A)
Method: (§4) A purified population of NF-1−/−S 100+Schwann cells isolated from a plexiform neurofibroma in a genetically engineered mouse (Zhu, Y. et al., Science, May 2002, 3; 296(5569)):920-922) were stimulated with a maximum stimulating concentration of platelet derived growth factor (PDGF) in the presence of a control or compound (3) at concentrations of 2.5-5 μM. Ras-GTP was measured 3 minutes subsequently using Western blot analysis. […] In parallel experiments, Schwann cell proliferation was measured using visible spectroscopy 24 hrs after PDGF stimulation in the presence of a control or compound (3) at concentrations of 25-50 μM. […] Each asterisk in FIG. 5B represents a statistical difference relative to the control using analysis of variance. (Yang, Feng-Chun, et. al. J Clin Invest 2003, 112(12), 1851-1861; Yang, Feng-Chun, et. al. Hum Mol Genet 2006, 15(11), 1921-1930).

[5] = test system: NF-1-/- S100+ Schwann cells; test: NF-1-/- Schwann cell proliferation (visible spectroscopy); assay type: cell-based, mouse; details: 25-50 μM, 24 hrs after PDGF stimulation (FIG. 5B)
Method: as §4

[6] = test system: primary human lung fibroblasts; test: Inhibition of TGF-β induced myofibroblast formation (α-SMA Western blot); assay type: cell-based; details: TGF-β 72 hours, concentrations below 25 μM
Method: Primary human lung fibroblasts were stimulated for 72 hours with transforming growth factor beta (TGF-β) to induce their differentiation to an alpha smooth muscle actin (α-SMA) expressing activated myofibroblasts cell fate. […] The activin like kinase receptor (ALK5) inhibitor SB431542 was used as a positive control. Myofibroblast formation was evaluated by Western blot by examining changes in α-SMA levels.

[7] = 25 μM, media with 5% serum, five days (FIG. 2)
[8] = 50 μM, five days, trypan blue cell count (FIG. 1)

CC(C)=CCC/C(C)=C/CC/C(C)=C/CSc1ccccc1C(=O)O [FTS, farnesyl-thiosalicylic acid, reference compound]
U87MG cell proliferation compared to control ([1]; 6.25 μM, media with 5% serum, five days (FIG. 2)): over 80%
U87MG cell proliferation compared to control [1, 7]: over 50%
U87MG cell proliferation compared to control [1, 8]: 7%
PANC-1 cell proliferation compared to control [2]: over 80%

CC(C)=CCC/C(C)=C/CC/C(C)=C/CSc1ccccc1-c1nn[nH]n1 [compound (1), 5-(2-{[(2E,6E)-3,7,11-trimethyldodeca-2,6,10-trien-1-yl]sulfanyl}phenyl)-2H-1,2,3,4-tetrazole]
U87MG cell proliferation compared to control [1, 8]: 37%

CC(C)=CCC/C(C)=C/CC/C(C)=C/CSc1ccsc1C(=O)O [compound (3), 3-{[(2E,6E)-3,7,11-trimethyldodeca-2,6,10-trien-1-yl]sulfanyl}thiophene-2-carboxylic acid]
U87MG cell proliferation compared to control [1, 7]: 69%
U87MG cell proliferation compared to control [1, 8]: 10%
IC50 ([1]; Homo sapiens, U-87 MG, value quoted in Example 7, read-out: IC50 as determined on the U87MG cells): 25 µM
PANC-1 cell proliferation compared to control [2]: 41%
toxicity to hematopoietic progenitor cells (CFU-GM, BFU-E, mixed colonies) [3]: not toxic
level of Ras-GTP relative to the control [4]: significantly reduced
Schwann cell proliferation relative to the control [5]: reduced
inhibition of myofibroblast formation [6]: did not inhibit

CCOC(=O)c1nnsc1SC/C=C(\C)CC/C=C(\C)CCC=C(C)C [compound (4), Ethyl 5-{[(2E,6E)-3,7,11-trimethyldodeca-2,6,10-trien-1-yl]sulfanyl}-1,2,3-thiadiazole-4-carboxylate]
U87MG cell proliferation compared to control [1, 8]: 40%
